31 compounds from patent US8629168B2, “Benzoxazoles and oxazolopyridines being useful as janus kinases inhibitors” (priority 2006, dated 2014) can be followed below.

T1 sequence (O60674 808-1132): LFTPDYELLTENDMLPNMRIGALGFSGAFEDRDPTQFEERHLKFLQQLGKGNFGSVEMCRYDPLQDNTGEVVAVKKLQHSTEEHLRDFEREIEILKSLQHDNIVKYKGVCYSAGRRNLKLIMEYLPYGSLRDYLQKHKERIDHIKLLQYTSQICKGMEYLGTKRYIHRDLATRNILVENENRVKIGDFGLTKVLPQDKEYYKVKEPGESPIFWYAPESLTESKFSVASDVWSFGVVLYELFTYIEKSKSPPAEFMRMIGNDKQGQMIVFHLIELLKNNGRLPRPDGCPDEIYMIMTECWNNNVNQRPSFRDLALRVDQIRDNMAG

The assay has as its target T1, GST-JAK2(808-1132) (Homo sapiens, UniProt O60674).
T1 construct: GST-JAK2(808-1132) is purchased from Invitrogen; purchased Invitrogen (Carlsbad, USA) #4288
Briefly: EPK JAK/TYK-kinase family profiling assay (Caliper mobility shift), JAK2. The format is biochemical. As to conditions: Caliper mobility shift assay of Example 187, 20 μM ATP, read-out: IC50 with Test in present Example. The gist of the method:
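Caliper mobility-shift assay with the GST-tagged kinase domain and a fluorescently labeled peptide substrate plus ATP, run 60 min at 30° C and then stopped with EDTA buffer. Turnover was taken as the substrate/product ratio. Compounds were tested at eight final concentrations from 10 to 0.003 μM.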
As for `CC(=O)NC1Cc2ccc(Nc3nc4cccc(-c5ccc(CN6CCS(=O)(=O)CC6)cc5)c4o3)cc2C1` (stereo not shown) [Example 133, N-(5-{7-[4-(1,1-Dioxo-1lambda*6*-thiomorpholin-4-ylmethyl)-phenyl]-benzooxazol-2-ylamino}-indan-2-yl)-acetamide], the IC50 (as a rule, the concentration at which inhibition is half-maximal) worked out at 14 nM.

In the case of `O=C1Cc2cc(Nc3nc4cccc(-c5cc(F)c(CN6CCOCC6)c(F)c5)c4o3)ccc2N1` [Example 134, 5-[7-(3,5-Difluoro-4-morpholin-4-ylmethyl-phenyl)-benzooxazol-2-ylamino]-1,3-dihydro-indol-2-one], the IC50 is 98 nM.

For the compound `C[S+]([O-])c1ccc(Nc2nc3cccc(-c4ccc(CC(=O)N5CCOCC5)cc4)c3o2)cc1` (stereo not shown) [Example 135, 2-{4-[2-(4-Methanesulfinyl-phenylamino)-benzooxazol-7-yl]-phenyl}-1-morpholin-4-yl-ethanone], the half-maximal inhibitory concentration (IC50) stood at 18 nM.

Regarding `COc1cc(Nc2nc3cccc(-c4ccc(Cn5ccnc5)cc4)c3o2)cc(OC)c1OC` [Example 136, [7-(4-Imidazol-1-ylmethyl-phenyl)-benzooxazol-2-yl]-(3,4,5-trimethoxy-phenyl)-amine], the IC50 was found to be 18 nM.

Regarding `COc1cc(Nc2nc3cccc(-c4ccc(CN5CCN(C)CC5)cc4)c3o2)cc(OC)c1OC` [Example 137], the IC50 is 160 nM.

With `COc1cc(Nc2nc3cccc(-c4ccc(CN5CCOCC5)cc4)c3o2)cc(OC)c1OC` [Example 138, [7-(4-Morpholin-4-ylmethyl-phenyl)-benzooxazol-2-yl]-(3,4,5-trimethoxy-phenyl)-amine], the IC50 was determined as 14 nM.

Consider `COc1cc(Nc2nc3cccc(-c4ccc(CO)cc4)c3o2)cc(OC)c1OC` [Example 143, {4-[2-(3,4,5-Trimethoxy-phenylamino)-benzooxazol-7-yl]-phenyl}-methanol], for which the concentration for half-maximal inhibition (IC50) was 16.5 nM.

In the case of `CNS(=O)(=O)c1ccc(-c2cccc3nc(Nc4ccc(C)c(OC)c4)oc23)cc1` [Example 144, 4-[2-(3-Methoxy-4-methyl-phenylamino)-benzooxazol-7-yl]-methyl-benzenesulfonamide], the IC50 was determined as 725 nM.

For the compound `COCCNC(=O)c1ccc(Nc2nc3cccc(-c4ccc(C(=O)N5CCOCC5)cc4)c3o2)cc1` [Example 145, N-(2-Methoxy-ethyl)-4-{7-[4-(morpholine-4-carbonyl)-phenyl]-benzooxazol-2-ylamino}-benzamide], the IC50 was determined as 55 nM.

Consider `CN(C)C(=O)c1ccc(Nc2nc3cccc(-c4ccc(S(N)(=O)=O)cc4)c3o2)cc1` [Example 146, N,N-Dimethyl-4-[7-(4-sulfamoyl-phenyl)-benzooxazol-2-ylamino]-benzamide], for which the IC50 stood at 19.5 nM.

Turning to `COCCNC(=O)c1ccc(Nc2nc3cccc(-c4ccc(CC(=O)N5CCOCC5)cc4)c3o2)cc1` [Example 147, N-(2-Methoxy-ethyl)-4-{7-[4-(2-morpholin-4-yl-2-oxo-ethyl)-phenyl]-benzooxazol-2-ylamino}-benzamide], the 50% inhibitory concentration (IC50) amounted to 28 nM.

Regarding `CS(=O)(=O)Nc1cccc(Nc2nc3cccc(-c4ccc(C(=O)N5CCOCC5)cc4)c3o2)c1` [Example 148, N-(3-{7-[4-(Morpholine-4-carbonyl)-phenyl]-benzooxazol-2-ylamino}-phenyl)-methanesulfonamide], the IC50 stood at 50 nM.

Take `COC(=O)c1ccc(Nc2nc3cccc(-c4ccc(C(=O)N5CCOCC5)cc4)c3o2)cc1OC` [Example 149, 2-Methoxy-4-{7-[4-(morpholine-4-carbonyl)-phenyl]-benzooxazol-2-ylamino}-benzoic acid methyl ester]: the IC50 amounted to 62 nM.

Turning to `COc1cc(Nc2nc3cccc(-c4ccc(C(=O)N5CCOCC5)cc4)c3o2)ccc1C(=O)N(C)C` [Example 150, 2-Methoxy-N,N-dimethyl-4-{7-[4-(morpholine-4-carbonyl)-phenyl]-benzooxazol-2-ylamino}-benzamide], the IC50 was 25 nM.

On to `CN1CCN(c2ccc(Nc3nc4cccc(-c5ccc(C(C)(C)C(=O)N6CCOCC6)cc5)c4o3)cc2)CC1` [Example 151, 2-Methyl-2-(4-{2-[4-(4-methyl-piperazin-1-yl)-phenylamino]-benzooxazol-7-yl}-phenyl)-1-morpholin-4-yl-propan-1-one], for which the IC50 came out at 27.5 nM.

Regarding `CCN1CCN(c2ccc(Nc3nc4ccnc(-c5cc(F)c(CN6CCOCC6)c(F)c5)c4o3)cc2C)CC1` [Example 152, [4-(3,5-Difluoro-4-morpholin-4-ylmethyl-phenyl)-oxazolo[5,4-c]pyridin-2-yl]-[4-(4-ethyl-piperazin-1-yl)-3-methyl-phenyl]-amine], the IC50 stood at 180 nM.

In the case of `CCN1CCN(c2ccc(Nc3nc4ccnc(-c5cc(F)c(CN6CCS(=O)(=O)CC6)c(F)c5)c4o3)cc2C)CC1` [Example 153, {4-[4-(1,1-Dioxo-1lambda*6*-thiomorpholin-4-ylmethyl)-3,5-difluoro-phenyl]-oxazolo[5,4-c]pyridin-2-yl}-[4-(4-ethyl-piperazin-1-yl)-3-methyl-phenyl]-amine], the IC50 is 26 nM.

Turning to `Cc1cc(Nc2nc3cccc(-c4cc(F)c(CN5CCS(=O)(=O)CC5)c(F)c4)c3o2)ccc1N1CCN(C2CC2)CC1` [Example 154, [4-(4-Cyclopropyl-piperazin-1-yl)-3-methyl-phenyl]-{7-[4-(1,1-dioxo-1lambda*6*-thiomorpholin-4-ylmethyl)-3,5-difluoro-phenyl]-benzooxazol-2-yl}-amine], the IC50 turned out to be 3.3 nM.

Regarding `Cc1cc(-c2cccc3nc(Nc4ccc(N5CCN(C6CC6)CC5)c(C)c4)oc23)ccc1C(=O)N1CCOCC1` [Example 155, (4-{2-[4-(4-Cyclopropyl-piperazin-1-yl)-3-methyl-phenylamino]-benzooxazol-7-yl}-2-methyl-phenyl)-morpholin-4-yl-methanone], the IC50 was 13.5 nM.

Take `Cc1cc(Nc2nc3cccc(-c4ccc(C(=O)N5CCOCC5)c(F)c4)c3o2)ccc1N1CCN(C2CC2)CC1` [Example 156, (4-{2-[4-(4-Cyclopropyl-piperazin-1-yl)-3-methyl-phenylamino]-benzooxazol-7-yl}-2-fluoro-phenyl)-morpholin-4-yl-methanone]: the IC50 is 20.5 nM.

For `Cc1cc(Nc2nc3cccc(-c4ccc(C(C)(C)C(=O)N5CCOCC5)cc4)c3o2)ccc1N1CCN(C2CC2)CC1` [Example 157, 2-(4-{2-[4-(4-Cyclopropyl-piperazin-1-yl)-3-methyl-phenylamino]-benzooxazol-7-yl}-phenyl)-2-methyl-1-morpholin-4-yl-propan-1-one], the IC50 was determined as 11.7 nM.

On to `Cc1cc(Nc2nc3cccc(-c4cc(F)c(CN5CCOCC5)c(F)c4)c3o2)ccc1C(=O)N(C)CCN(C)C` [Example 158, 4-[7-(3,5-Difluoro-4-morpholin-4-ylmethyl-phenyl)-benzooxazol-2-ylamino]-N-(2-dimethylamino-ethyl)-2,N-dimethyl-benzamide], for which the IC50 is 21 nM.

On to `Cc1cc(Nc2nc3cccc(-c4cc(F)c(CN5CCS(=O)(=O)CC5)c(F)c4)c3o2)ccc1C(=O)N(C)CCN(C)C` [Example 159, N-(2-Dimethylamino-ethyl)-4-{7-[4-(1,1-dioxo-1lambda*6*-thiomorpholin-4-ylmethyl)-3,5-difluoro-phenyl]-benzooxazol-2-ylamino}-2,N-dimethyl-benzamide], for which the IC50 came out at 6.2 nM.

On to `Cc1cc(Nc2nc3cccc(-c4cc(F)c(CN5CCOCC5)c(F)c4)c3o2)ccc1N1CCN(C2CC2)CC1` [Example 160, [4-(4-Cyclopropyl-piperazin-1-yl)-3-methyl-phenyl]-[7-(3,5-difluoro-4-morpholin-4-ylmethyl-phenyl)-benzooxazol-2-yl]-amine], for which the IC50 came to 18 nM.

Consider `Cc1cc(Nc2nc3cccc(-c4cc(F)c(CN5CCOCC5)c(F)c4)c3o2)cn(C)c1=O` [Example 161, 5-[7-(3,5-Difluoro-4-morpholin-4-ylmethyl-phenyl)-benzooxazol-2-ylamino]-1,3-dimethyl-1H-pyridin-2-one], for which the IC50 is 80 nM.

In the case of `Cc1cc(-c2cccc3nc(Nc4ccc(N5CCN(C6CC6)CC5)c(C)c4)oc23)ccc1C(=O)N1CCS(=O)(=O)CC1` [Example 162, (4-{2-[4-(4-Cyclopropyl-piperazin-1-yl)-3-methyl-phenylamino]-benzooxazol-7-yl}-2-methyl-phenyl)-(1,1-dioxo-1lambda*6*-thiomorpholin-4-yl)-methanone], the half-inhibitory concentration (IC50) turned out to be 8.9 nM.

For `Cc1cc(Nc2nc3cccc(-c4cc(F)c(CN5CCOCC5)c(F)c4)c3o2)ccc1N1CCOCC1` [Example 163, [7-(3,5-Difluoro-4-morpholin-4-ylmethyl-phenyl)-benzooxazol-2-yl]-(3-methyl-4-morpholin-4-yl-phenyl)-amine], the IC50 came out at 11.6 nM.

As for `Cc1cc(Nc2nc3cccc(-c4cc(F)c(CN5CCS(=O)(=O)CC5)c(F)c4)c3o2)ccc1N1CCOCC1` [Example 164, {7-[4-(1,1-Dioxo-1lambda*6*-thiomorpholin-4-ylmethyl)-3,5-difluoro-phenyl]-benzooxazol-2-yl}-(3-methyl-4-morpholin-4-yl-phenyl)-amine], the IC50 stood at 7.25 nM.

`Cc1cc(Nc2nc3cccc(-c4ccc(C(=O)N5CCS(=O)(=O)CC5)cc4)c3o2)ccc1CN1CCOCC1` [Example 165, (1,1-Dioxo-1lambda*6*-thiomorpholin-4-yl)-{4-[2-(3-methyl-4-morpholin-4-ylmethyl-phenylamino)-benzooxazol-7-yl]-phenyl}-methanone]: the half-maximal inhibitory concentration (IC50) stood at 11 nM.

For the compound `Cc1cc(Nc2nc3cccc(-c4ccc(C(=O)N5CCOCC5)c(C)c4)c3o2)ccc1CN1CCOCC1` [Example 166, {2-Methyl-4-[2-(3-methyl-4-morpholin-4-ylmethyl-phenylamino)-benzooxazol-7-yl]-phenyl}-morpholin-4-yl-methanone], the IC50 came to 11.1 nM.

With `Cc1cc(Nc2nc3cccc(-c4ccc(C(C)(C)C(=O)N5CCOCC5)cc4)c3o2)ccc1CN1CCOCC1` [Example 167, 2-Methyl-2-{4-[2-(3-methyl-4-morpholin-4-ylmethyl-phenylamino)-benzooxazol-7-yl]-phenyl}-1-morpholin-4-yl-propan-1-one], the IC50 amounted to 14 nM.
